Source: ChEMBL document CHEMBL5614421, “Structure-activity relationship study of Pseudellone C as anti-glioma agents by targeting TNF/TNFR signaling pathway” (Eur J Med Chem, 2024)

Legend:
U-87 MG [1] = assay: Antiproliferative activity against human U-87 MG cells assessed as inhibition of cell growth incubated for 68 hrs by CCK-8 assay; type: functional, cell-based, U-87MG ATCC
LN-229 [2] = assay: Antiproliferative activity against human LN-229 cells assessed as inhibition of cell growth incubated for 68 hrs by CCK-8 assay; type: functional, cell-based; details: LN-229, 68 h
U-87 MG [3] = assay: Induction of apoptosis in human U-87 MG cells assessed as late apoptotic cells at 5 uM incubated for 24 hrs by Annexin V-APC/7-AAD staining based flow cytometric analysis (reference value: 7.7 %); type: functional, U-87MG ATCC
U-87 MG [4] = assay: Induction of apoptosis in human U-87 MG cells assessed as early apoptotic cells at 5 uM incubated for 24 hrs by Annexin V-APC/7-AAD staining based flow cytometric analysis (reference value: 3.44 %); type: functional, U-87MG ATCC
LN-229 [5] = assay: Induction of apoptosis in human LN-229 cells assessed as early apoptotic cells at 5 uM incubated for 24 hrs by Annexin V-APC/7-AAD staining based flow cytometric analysis (reference value: 0.91 %); type: functional
U-87 MG [6] = assay: Induction of apoptosis in human U-87 MG cells assessed as viable cells at 5 uM incubated for 24 hrs by Annexin V-APC/7-AAD staining based flow cytometric analysis (reference value: 85 %); type: functional, U-87MG ATCC; details: read-out: Activity
LN-229 [7] = assay: Induction of apoptosis in human LN-229 cells assessed as necrotic cells at 5 uM incubated for 24 hrs by Annexin V-APC/7-AAD staining based flow cytometric analysis (reference value: 1.95 %); type: functional
U-87 MG [8] = assay: Induction of apoptosis in human U-87 MG cells assessed as necrotic cells at 5 uM incubated for 24 hrs by Annexin V-APC/7-AAD staining based flow cytometric analysis (reference value: 3.85 %); type: functional, U-87MG ATCC
LN-229 [9] = assay: Induction of apoptosis in human LN-229 cells assessed as late apoptotic cells at 5 uM incubated for 24 hrs by Annexin V-APC/7-AAD staining based flow cytometric analysis (reference value: 4.86 %); type: functional
LN-229 [10] = assay: Induction of apoptosis in human LN-229 cells assessed as viable cells at 5 uM incubated for 24 hrs by Annexin V-APC/7-AAD staining based flow cytometric analysis (reference value: 92.3 %); type: functional; details: read-out: Activity

IC50 (U-87 MG [1]) [µM]	SMILES	IC50 (LN-229 [2]) [µM]	other results
7.23	CCCCCCCCCCNC(=O)[C@H](Cc1c[nH]c2ccccc12)NC(=O)C(C)(c1c[nH]c2ccccc12)c1c[nH]c2ccccc12	6.07	
16.9	CC(C)CCNC(=O)[C@H](Cc1c[nH]c2ccccc12)NC(=O)C(C)(c1c[nH]c2ccccc12)c1c[nH]c2ccccc12	12.7	
17.3	CC(C)CCOC(=O)[C@H](Cc1c[nH]c2ccccc12)NC(=O)C(C)(c1c[nH]c2ccccc12)c1c[nH]c2ccccc12	20.4	
> 50	CC(C(=O)N[C@@H](Cc1c[nH]c2ccccc12)C(=O)NCC1CCOCC1)(c1c[nH]c2ccccc12)c1c[nH]c2ccccc12	> 50	
> 50	CC(C(=O)N[C@@H](Cc1c[nH]c2ccccc12)C(=O)O)(c1c[nH]c2ccccc12)c1c[nH]c2ccccc12	> 50	
8.3	CC(C)CCCOC(=O)[C@H](Cc1c[nH]c2ccccc12)NC(=O)C(C)(c1c[nH]c2ccccc12)c1c[nH]c2ccccc12	12.2	
46.3	CNC(=O)[C@H](Cc1c[nH]c2ccccc12)NC(=O)C(C)(c1c[nH]c2ccccc12)c1c[nH]c2ccccc12	23.2	
9.68	CCCCCCCCCNC(=O)[C@H](Cc1c[nH]c2ccccc12)NC(=O)C(C)(c1c[nH]c2ccccc12)c1c[nH]c2ccccc12	7.17	
15	COC(=O)[C@H](Cc1c[nH]c2ccccc12)NC(=O)C(C)(c1c[nH]c2c(F)cccc12)c1c[nH]c2c(F)cccc12	5.52	
4.81	COC(=O)[C@H](Cc1c[nH]c2ccccc12)NC(=O)C(C)(c1c[nH]c2cc(Br)ccc12)c1c[nH]c2cc(Br)ccc12	6.62	
23.5	CC(C)OC(=O)[C@H](Cc1c[nH]c2ccccc12)NC(=O)C(C)(c1c[nH]c2ccccc12)c1c[nH]c2ccccc12	> 50	
54.9	CCCCCCCCCCCCOC(=O)[C@H](Cc1c[nH]c2ccccc12)NC(=O)C(C)(c1c[nH]c2ccccc12)c1c[nH]c2ccccc12	> 50	
113	Cn1nnc2c(C(N)=O)ncn2c1=O [TEMOZOLOMIDE]	> 500	
12	CCCCCCCCCCCCNC(=O)[C@H](Cc1c[nH]c2ccccc12)NC(=O)C(C)(c1c[nH]c2ccccc12)c1c[nH]c2ccccc12	10.8	
36.4	C#CCNC(=O)[C@H](Cc1c[nH]c2ccccc12)NC(=O)C(C)(c1c[nH]c2ccccc12)c1c[nH]c2ccccc12	17.4	
> 50	CC(C)CNC(=O)[C@H](Cc1c[nH]c2ccccc12)NC(=O)C(C)(c1c[nH]c2ccccc12)c1c[nH]c2ccccc12	> 50	
19.9	CCCCCCCCCCOC(=O)[C@H](Cc1c[nH]c2ccccc12)NC(=O)C(C)(c1c[nH]c2ccccc12)c1c[nH]c2ccccc12	13.1	
> 50	CC(C(=O)N[C@@H](Cc1c[nH]c2ccccc12)C(=O)NC1CC1)(c1c[nH]c2ccccc12)c1c[nH]c2ccccc12	> 50	
17	COC(=O)[C@H](Cc1c[nH]c2ccccc12)NC(=O)C(C)(c1c[nH]c2ccccc12)c1c[nH]c2ccccc12	36.9	
10.7	CCCCCCCCNC(=O)[C@H](Cc1c[nH]c2ccccc12)NC(=O)C(C)(c1c[nH]c2ccccc12)c1c[nH]c2ccccc12	16.1	
> 50	CCCCCCNC(=O)C(C)(c1c[nH]c2ccccc12)c1c[nH]c2ccccc12	> 50	
7.54	CCCCCCOC(=O)[C@H](Cc1c[nH]c2ccccc12)NC(=O)C(C)(c1c[nH]c2ccccc12)c1c[nH]c2ccccc12	12.5	
> 50	CC(C(=O)N[C@@H](Cc1c[nH]c2ccccc12)C(=O)NC[C@H]1CCCO1)(c1c[nH]c2ccccc12)c1c[nH]c2ccccc12	21.3	

IC50 (U-87 MG [1]) [µM]	SMILES	IC50 (LN-229 [2]) [µM]	other results
> 50	CCCCCCCNC(=O)C(C)(c1c[nH]c2ccccc12)c1c[nH]c2ccccc12	> 50	
> 50	Cc1ccc(CNC(=O)C(C)(c2c[nH]c3ccccc23)c2c[nH]c3ccccc23)cc1	> 50	
> 50	CCCCCCCCCCCCCCNC(=O)[C@H](Cc1c[nH]c2ccccc12)NC(=O)C(C)(c1c[nH]c2ccccc12)c1c[nH]c2ccccc12	> 50	
16	CCCCCCNC(=O)[C@H](Cc1c[nH]c2ccccc12)NC(=O)C(C)(c1c[nH]c2ccccc12)c1c[nH]c2ccccc12	25.5	
21.7	CCCCOC(=O)[C@H](Cc1c[nH]c2ccccc12)NC(=O)C(C)(c1c[nH]c2ccccc12)c1c[nH]c2ccccc12	20.2	
	FC(F)(F)c1nnc2c(Sc3ccccc3)nc3ccc(Cl)cc3n12		Activity (U-87 MG [3]): 5.1%; Activity (U-87 MG [4]): 10%; Activity (LN-229 [5]): 14.6%; viability at 5 µM (U-87 MG [6]): 82.7%; Activity (LN-229 [7]): 0.97%; Activity (U-87 MG [8]): 2.24%; Activity (LN-229 [9]): 8.42%; viability at 5 µM (LN-229 [10]): 76.1%
19.4	CCCCCNC(=O)[C@H](Cc1c[nH]c2ccccc12)NC(=O)C(C)(c1c[nH]c2ccccc12)c1c[nH]c2ccccc12	18.8	
168	CNC(=O)[C@@H](NC(=O)C(C)(c1c[nH]c2ccccc12)c1c[nH]c2ccccc12)C(=O)c1c[nH]c2ccccc12	> 100	
10.7	CCCCCCCOC(=O)[C@H](Cc1c[nH]c2ccccc12)NC(=O)C(C)(c1c[nH]c2ccccc12)c1c[nH]c2ccccc12	10.5	
41.3	Cc1ccc(CNC(=O)[C@H](Cc2c[nH]c3ccccc23)NC(=O)C(C)(c2c[nH]c3ccccc23)c2c[nH]c3ccccc23)cc1	> 50	
> 50	CC(C(=O)N[C@@H](Cc1c[nH]c2ccccc12)C(=O)NCC1CC1)(c1c[nH]c2ccccc12)c1c[nH]c2ccccc12	> 50	
7.74	COC(=O)[C@H](Cc1c[nH]c2ccccc12)NC(=O)C(C)(c1c[nH]c2ccc(C(F)(F)F)cc12)c1c[nH]c2ccc(C(F)(F)F)cc12	5.52	
22.1	COC(=O)[C@H](Cc1c[nH]c2ccccc12)NC(=O)C(C)(c1c[nH]c2cccc(F)c12)c1c[nH]c2cccc(F)c12	10.8	
> 50	CC(C(=O)N[C@@H](Cc1c[nH]c2ccccc12)C(=O)NC[C@@H]1CCCO1)(c1c[nH]c2ccccc12)c1c[nH]c2ccccc12	23.5	
7.34	COC(=O)[C@H](Cc1c[nH]c2ccccc12)NC(=O)C(C)(c1c[nH]c2c(Br)cccc12)c1c[nH]c2c(Br)cccc12	8.71	
> 50	CC(C(=O)O)(c1c[nH]c2ccccc12)c1c[nH]c2ccccc12	> 50	
12.3	CCCCCCCCCOC(=O)[C@H](Cc1c[nH]c2ccccc12)NC(=O)C(C)(c1c[nH]c2ccccc12)c1c[nH]c2ccccc12	12.6	
> 50	COc1ccc(CNC(=O)C(C)(c2c[nH]c3ccccc23)c2c[nH]c3ccccc23)cc1	> 50	
> 50	COCCCNC(=O)[C@H](Cc1c[nH]c2ccccc12)NC(=O)C(C)(c1c[nH]c2ccccc12)c1c[nH]c2ccccc12	19.4	
59.3	COC(=O)[C@H](Cc1c[nH]c2ccccc12)NC(=O)C(C)(c1cn(C)c2ccccc12)c1cn(C)c2ccccc12	> 50	
29.2	CC(C(=O)N[C@@H](Cc1c[nH]c2ccccc12)C(=O)OCC1CCOCC1)(c1c[nH]c2ccccc12)c1c[nH]c2ccccc12	> 50	
46.1	CC(C(=O)N[C@@H](Cc1c[nH]c2ccccc12)C(=O)NCc1ccco1)(c1c[nH]c2ccccc12)c1c[nH]c2ccccc12	17.9	
